Experimental data published in patent US5334588A, “Composition for inhibiting transmission of hepatitis B virus” (priority 1991, dated 1994).
Read-outs that look alike come from different tables or passages of the source.

Legend:
HSV = assay: Toxicity of drugs for HSV, titer on vero cells (Table 7A); assay type: cell-based; details: 200 μl of 500 μg/ml stock added to 1 ml virus, 20 min at R.T.; for Titer: read after 48 hours
Experimental: One ml HSV at 3 × 10^6/ml was incubated with 200 μliters of
drugs each 500 μg/ml stock solution. After 20 minutes at
R.T., the virus was titered on monolayers of vero cells,
incubatwd for 2 hours, then overlayed with methyl cellulose.
Virus titers were read after 48 hours. No drug toxicity* was […]

[1] = test system: Rauscher Leukemia Virus (RLV); assay: Infectivity of Rauscher Leukemia Virus (RVB3) in mice, spleen weight (Table 4); assay type: in vivo, Balb/CICR mice; details: 2% drug in coating solution, 20 days; for Weight of Spleen: average of 6 animals, infected glove control 1,627; for Weight Increase from Control: infected glove control 1,541
Experimental: In vivo tests were performed using Rauscher Leukemia Virus (RLV), a recognized retrovirus model (see, e.g., Nature 323, 467-469 (1986); Rupecht et al., Proc. Nat'l. Acad. Sci. USA 82, 7733-7737 (1985)) which is used by the FDA in testing drugs for use in treating AIDS. RLV was introduced into Balb/CICR mice in which it infects the spleen. The level of virus infectivity was quantified by determining the weight increase of the mouse spleen after 20 days from infection.
Each treatment was prepared by incubating 1.5 ml Dulbecco's Phosphate Buffered Saline (PBS) for 10 minutes at 37° C. in the finger tip of a latex glove. After incubation, as much as possible of the material was removed from the glove. 0.4 ml of PBS was then introduced into the glove and this was the sample which was introduced into the animals. […] Thus two of the groups only had four animals each that were considered.
[…] Each treatment was prepared by incubating 0.4 ml sterile PBS containing RVB3 (a strain of RLV) for 10 minutes in a glove tip which had previously had one of drugs or straight PBS incubated in it as described above. Three additional controls, a PBS containing glove with no virus, a virus sample not incubated in a glove, and a PBS sample not incubated in a glove were also run.

Candida albicans [2] = assay: Rate of killing of Candida albicans on short exposure (Table 5A); assay type: cell-based; details: 10 minute incubation, control >50,000
Experimental: 3 ml of Saboraud broth containing 10^5 organism of Candida albicans
were incubated with the above drug. Aliquots were removed at 5 and 10
minute and were subcultured.

Gonococcus = assay: Killing of Gonococcus (Table 6); assay type: cell-based; details: for Colony Counts in Culture: control >50,000
Experimental: Drugs were suspended in 5 ml of cultures containing […] of
gonoccccus and incubated. Aliquots were removed at 5 and 10 minute
intervals and subcultured for colony counts.

HIV-I = details: 10 minutes exposure; HIBICLENS or HIBISTAT dilutions; C3-44 cells; cited from earlier work
[3] = test system: ARV-2 strain of AIDS virus; assay: Infectivity of ARV-2 strain of AIDS virus in H9 cells (Table 2); assay type: cell-based; details: for % Infection: 15 min preincubation, 24 h
Experimental: A stock solution of virus containing 3 to 5×10^4 infectious virus particles/ml was preincubated with the various drugs as indicated in Table 2 for 15 minutes. The virus sample was then diluted 4-fold in order to reduce the concentrations of the drugs below levels toxic to H9 cells (see Example 3 below) and mixed with 250,000 H9 cells in a total volume of 1 ml. After 24 hours, the cells were assayed to determine the percentage of the culture expressing viral antigen. This time interval was selected as it allows for only a single round of viral infection to have occurred such that the number of cells infected was a direct reflection of the number of infectious virions present in the original sample.

H9 cells = details: for % Viab (live cells/live & dead) / Viable Cells/ml: 10 min exposure; for % Viab (live cells/live & dead): after 24 h; for Viable Cells/ml: viability after 24 h
Experimental: The toxicity of the various agents used in the antiviral compositions of the invention to human T4 -lymphocytes (H9 cells and marophages which are the carriers of the AIDS virus) may be relevant to the effectiveness of a drug. This is because killing these cells when present in semen or vaginal fluids may lead to release of virus making it more susceptible to the effects of the drug. With this in mind, the effect of short exposure (10 minutes) of AgSD and other drugs on H9 cells was tested by treating a suspension of H9 cells (1.6×10^6 /ml in HBSS) with […] of each drug or drug combination. After incubating for 10 minutes, the cells were washed twice in thirty volumes of HBSS; resuspended in RPMI 10% FCS+NaPyruvate and plated into 24 well plates at 4×10^5 cells/mi. Cell viability was determined after 24 hours and is reported as numbers of viable cells per ml and viable percentage (live cells/live cells+dead cells) in Table 3A.

Staph. aureus [4] = assay: Antibacterial efficacy of coated I.V. catheters, Bioassay A (Table 8); assay type: cell-based; details: Polyurethane I.V. catheter, silicone matrix coating; 10^4 CFU Staph. aureus
Description: The coatings were applied by dipping and then drying.
Staph. aureus is used to challenge the I.V. catheter.

macrophages = assay: Rate of killing of macrophage by drugs, trypan-blue (Table 3B); assay type: cell-based, mouse; details: 100 μg; 20 min incubation; control 36% kill
Experimental: In the experiment, peritonial normal mouse macrophages were enriched by attaching to petri dishes and adjusted to a cell concentration of 5 to 10×10^6 /ml. 0.1 ml aliquots of this suspension were plated in microtiter plates and 10μ and 5μ of each of four samples was added. The control plate received PBS only. After 20 minutes of incubation in a […], the cells were tested for viability using tryphan-blue dye.

Candida albicans [5] = assay: Antifungal efficacy of drug coated gloves against Candida albicans (Table 5B); assay type: cell-based; details: treated glove
Experimental: Treated glove fingers were draped over the top of culture
tubes with the treated side foring the inside of the cup
shape. Then 3.0 ml of TSB contining 10^3 organisms of Candida
albicans was dispensed in each finger and all placed in the
water bath shaker at 37° C. Samples were removed at 15
minutes, 1 hour, 2 hours, and 4 hours. They were diluted 1-
10 and plated on blood agar in 2.0 ml amounts.

Staph. aureus [6] = assay: Antibacterial efficacy of drug coated gloves against Staph. aureus (Table 9); assay type: cell-based; details: 1% in coating solution
Experimental: The fingers of latex gloves were washed and dried. They were then sprayed with a fine mist spray of a coating solution to provide a uniform coating of solution on the glove surface, sufficient to provide complete wetting thereof without runoff. The coating solutions were prepared by dissolving 1% Silicate®Medical Adhesive Type A and 1% of the silicone MDX4-4159 in ethyl acetate, followed by dissolving and dispersing the chlorhexidine acetate and silver sulfadiazine, respectively, therein. The coating was air dried for 24 hours and the gloves tested using the following test:
Treated glove fingers were draped over the tops of culture tubes with the treated side with sprayed on coating forming the inside of the cup shape. Then 3.0 ml of TSB containing 10^4 colony forming units of Staph. aureus was dispensed in each finger and all placed in a water bath shaker at 37° C. Samples were removed at 15 minutes, 1 hour, 2 hours, and 4 hours, diluted 1-10, and the solution plated on blood agar in 2.0 ml amounts.

For benzalkonium chloride, the “% Inhibition” value (HSV) was 98% and the Titer (HSV) was 5.2 × 10^4.
For `CC(=O)O[C@H]1C[C@@]2(C)[C@@H](C[C@@H](O)[C@H]3[C@@]4(C)CC[C@@H](O)[C@@H](C)[C@@H]4CC[C@@]32C)/C1=C(\CCC=C(C)C)C(=O)O` [Fusidic acid], the “Weight of Spleen” value [1] was 107 mg and the “Weight Increase from Control” value [1] was 21 mg.
With nonoxynol the “Colony Counts in Culture” value (Candida albicans [2]; 0.2%) was > 50,000, the “Colony Counts in Culture” value (Gonococcus; 0.1%, 5 Minutes) was 40 and the “Colony Counts in Culture” value (Gonococcus; 0.1%, 10 Minutes) was 70. The “effectiveness against gonococcus” value (Gonococcus; general statement) was “effective against gonococcus”.
In the case of `N=C(NCCCCCCNC(=N)NC(=N)Nc1ccc(Cl)cc1)NC(=N)Nc1ccc(Cl)cc1.O=C(O)[C@H](O)[C@@H](O)[C@H](O)[C@H](O)CO.O=C(O)[C@H](O)[C@@H](O)[C@H](O)[C@H](O)CO` [chlorohexidine gluconate], the “concentration not effective to prevent HIV-I infection” value (HIV-I) is given as at most 0.01%.
In the case of `C[C@H](CCC(=O)O)[C@H]1CC[C@H]2[C@@H]3CC[C@@H]4C[C@H](O)CC[C@]4(C)[C@H]3C[C@H](O)[C@]12C` [NaDC, sodium deoxycholate], the “% Inhibition” value (HSV) is reported as 0%, the Titer (HSV) is reported as 3.2 × 10^6 and the % infection versus control at 10 µg/mL ([3]; H9, 24 h, read-out: % Infection v. Control) is reported as 108%. For the same compound, the “% Infection” value ([3]; drug during incubation 40 μg/ml, final 10.0 μg/ml) was 3.35%, the “Colony Counts in Culture” value (Candida albicans [2]; concentration 1,000 (unit not given)) was 8,000 and the “Weight of Spleen” value [1] was 109 mg. For the same compound, the “Weight Increase from Control” value [1] was 23 mg, the “Colony Counts in Culture” value (Gonococcus; 1,000 μg/ml, 5 Minutes) was 12,000 and the “Colony Counts in Culture” value (Gonococcus; 1,000 μg/ml, 10 Minutes) was 4,000. The “% Viab (live cells/live & dead)” value (H9 cells; 50 (ml/ml as printed in text)) was 73%, the “Viable Cells/ml” value (H9 cells; 50 (ml/ml as printed in text)) was 1.2 × 10^6 Cells/ml and the “% Viab (live cells/live & dead)” value (H9 cells; 100 (ml/ml as printed in text)) was 44%. The “Viable Cells/ml” value (H9 cells; 100 (ml/ml as printed in text)) was 2.0 × 10^6 Cells/ml.
In the case of `[H]/N=C(\N/C(=N/[H])NCCCCCCNC(=N)NC(=N)Nc1ccc(Cl)cc1)Nc1ccc(Cl)cc1` [CHA, chlorhexidine acetate], the % infection versus control at 2.5 µg/mL ([3]; H9, 24 h, drug during incubation 10 μg/ml, final 2.5 μg/ml, read-out: % Infection v. Control) is reported as 108%, the “% Infection” value ([3]; drug during incubation 10 μg/ml, final 2.5 μg/ml) is reported as 3.35% and the “Days of Activity” value (Staph. aureus [4]) is reported as 2 days. For the same compound, the “% Kill” value (macrophages) was 100%, the “condition of cells” value (H9 cells) was “Cells in terrible condition” and the “% Viab (live cells/live & dead)” value (H9 cells; 50 (ml/ml as printed in text)) was 73%. For the same compound, the “% Viab (live cells/live & dead)” value (H9 cells; 100 (ml/ml as printed in text)) was 20%.
In the case of `[H]/N=C(\N/C(=N/[H])NCCCCCCNC(=N)NC(=N)Nc1ccc(Cl)cc1)Nc1ccc(Cl)cc1` [Chlorhexidine, chlorhexidine], the “Colony Counts in Culture” value (Candida albicans [5]; 1 Hour, control 2,000) is reported as 0, the “Colony Counts in Culture” value (Candida albicans [5]; 2 Hours, control 4,000) is reported as 0 and the “Colony Counts in Culture” value (Candida albicans [5]; 4 Hours, control 6,000) is reported as 0. For the same compound, the “Colony Counts in Culture” value (Candida albicans [5]; 15 Minutes, control 1,400) was 75, the “% Inhibition” value (HSV) was 0% and the Titer (HSV) was 2.7 × 10^6. The “viral infectivity” value ([3]; 10 μg/ml) was “did not itself reduce viral infectivity”, the “effectiveness for reducing infectivity of AIDS virus” value ([3]; low concentrations, combination compared with AgSD alone) was “no effect on infectivity of AIDS virus” and the “Colony Counts in Culture” value (Candida albicans [2]; concentration 100 (unit not given)) was 30. The “Weight of Spleen” value [1] was 234 mg, the “Weight Increase from Control” value [1] was 148 mg and the “Colony Counts in Culture” value (Staph. aureus [6]; 15 min., control 12,000) was 100. For the same compound, the “Colony Counts in Culture” value (Staph. aureus [6]; 1 hour, control 15,000) was 0, the “Colony Counts in Culture” value (Staph. aureus [6]; 2 hours, control 20,000) was 0 and the “Colony Counts in Culture” value (Staph. aureus [6]; 4 hours, control 50,000) was 0. The “Colony Counts in Culture” value (Gonococcus; 100 μg/ml, 5 Minutes) was 2,000 and the “Colony Counts in Culture” value (Gonococcus; 100 μg/ml, 10 Minutes) was 10.
